The values below come from patent publication US20130237570A1 (priority 2002, published 2013).

Like-named read-outs stand apart in the source and are kept apart here.

Data set [1] can be described thus: Buffer capacity determination by titration with 0.1 M HCl. It counts as physicochemical. Conditions: without added buffering agent. As for the experimental part: Method: 10.0 ml of the respective below solutions was titrated with 0.1 M HCl to pH 7.0. The amount of 0.1 M HCl needed to decrease pH from 9.0 to 8.0 was determined
The conditions of data set [2]: Merck Index; cited from earlier work.
For data set [3] the following is noted: smoking of a cigarette; cited from earlier work.
The text on data set [4]: Absorption of nicotine from the oral cavity to the systemic circulation is dependent on the pH of the saliva and the pKa of nicotine, which is about 7.8. Assuming a pH of the saliva of 6.8 only about 10% of the nicotine in saliva will be in the free base form. Thus, in order to promote absorption of nicotine in a free base form, which is the form predominantly absorbed through the mucosa, the pH of the saliva must be increased. At a pH of 8.8 about 90% of the nicotine in saliva will then be in the free base form.

As to `CN1CCCC1c1cccnc1` (centres unmarked) [nicotine, 3-(1-methyl-2-pyrrolidinyl)-pyridine], the “buffering capacity on its own, in words” value in data set [1] was “too weak a buffering capacity on its own”. Also, the “amount of nicotine that may kill an adult” value in data set [2] is on record as “Approximately forty”. In data set [3], the “time for nicotine to reach the brain after inhalation” value is reported as “around ten”. Further, the results for the “nicotine in saliva in the free base form” value in data set [4] (saliva pH 6.8) and in data set [4] (saliva pH 8.8) were “about 10%” and “about 90%”, respectively.
